Experimental data as given in US6638974B1, “Ascorbyl esters for the treatment of cancer” (University of South Florida, priority 1999, dated 2003).
Where two headings read alike, the source gives them in different places.

What was measured:
[1] = system: HT29 cells; test: Cell cycle analysis by flow cytometry, HT29; type: cell-based, human; conditions: 24 hours
Description: HT29 cells were seeded into 25 cm^2 flasks at a density of 1×10^4 cells/ml. 72 hours after seeding, As-P was added to HT29 cells in culture at a final concentration of 50 μM, 100 μM, 150 μM. Control cells received medium only. After 24 hours of incubation, cells were harvested and processed for flow cytometry DNA analysis.

[2] = system: HT29 cells; test: MTT cell viability assay, HT29; type: cell-based, human; conditions: for inhibition at 150 µM: Homo sapiens, HT-29, 150 μM (5 FU at a similar concentration), read-out: inhibition of HT29 cell growth (MTT); for effect on HT29 cells (MTT): similar concentrations and incubation times as As-P (24 and 48 hours)
Description: (§1) HT-29, a human colon adenocarcinoma cell line, and CCD 18, a normal colon fibroblast, were obtained from the American Type Culture Collection (Rockville, Md.). The cells were grown in RPM1 1640 medium containing HEPES (20 mM), fetal bovine serum (10%), sodium bicarbonate (1 g/L), and penicillin (10 U/ml), streptomycin (10 ug/ml) at 37° C. in 5% CO2 humidified atmosphere.
(§2) The effect of various concentrations of As-P, ascorbate, palmitate or 5-fluorouracil (5 FU) on the viability and/or proliferation of HT29 or CCD 18 cells were evaluated. Cells were seeded in 96-well culture plates at 1×10^4 cells/well. The following day, As-P, ascorbate, palmitate or 5 FU were added at various concentrations. Cell viability was evaluated by the MTT assay 24 hours or 48 hours after the addition of the compounds. The effect of As-P on the cell cycle of HT29 cells was also investigated by flow cytometry.

[3] = system: CCD 18 cells; test: MTT cell viability assay, CCD 18; type: cell-based, human; conditions: for inhibition at 150 µM: Homo sapiens, Fibroblast, read-out: inhibitory effect on CCD 18 fibroblasts (MTT); for effect on CCD18 fibroblasts (MTT): similar concentrations and incubation times as As-P (24 and 48 hours)
Description: as §1, §2

[4] = system: Advanced colon cancer; conditions: single agent; cited from earlier work

CCCCCCCCCCCCCCCC(=O)OC[C@H](O)[C@H]1OC(=O)C(O)=C1O [As-P, L-Ascorbyl 6-palmitate]
% G2 + M ([1]; HT29, 50 μM As-P): 7.8%
% G4/G1 ([1]; HT29, 50 μM As-P): 57.1%
% S ([1]; HT29, 50 μM As-P): 35.1%
% G2 + M ([1]; HT29, 100 μM As-P): 4.3%
% G4/G1 ([1]; HT29, 100 μM As-P): 73.1%
% S ([1]; HT29, 100 μM As-P): 22.6%
% G2 + M ([1]; HT29, 150 μM As-P): 3.2%
% G4/G1 ([1]; HT29, 150 μM As-P): 86.1%
% S ([1]; HT29, 150 μM As-P): 10.7%
inhibition at 150 µM ([2]; 24 hours): 73%
inhibition at 150 µM ([2]; 48 hours): 89%
effect on HT29 cells at higher concentrations ([2]; above 100 μM): cytotoxic effect
effect on HT29 cell growth at lower concentrations ([2]; below 100 μM): stimulatory effect
effect on HT29 cell growth ([2]; higher concentrations (>125 μM)): great inhibitory effect
effect on HT29 cell growth ([2]; lower concentrations (<75 μM)): slight stimulating effect
inhibition at 150 µM ([3]; 24 hours): ~20%
inhibition at 150 µM ([3]; 48 hours): ~20%
effect on CCD 18 fibroblasts at lower concentrations ([3]; lower concentrations): stimulatory effect

O=c1[nH]cc(F)c(=O)[nH]1 [5 FU, 5-Fluorouracil, reference compound]
response rate [4]: 10-20%
effect on growth of HT29 cells at 24 hours ([2]; 24 hours): little or no inhibitory effect
inhibition of growth of HT29 cells at 48 hours ([2]; 48 hours, concentration not given): approximately 40%
inhibition at 150 µM ([2]; 24 hours): 14%
inhibition at 150 µM ([2]; 48 hours): 40%
effect on growth of CCD 18 fibroblasts at 24 hours ([3]; 24 hours): little or no inhibitory effect
effect on CCD 18 cells at 48 hours ([3]; 48 hours): little effect

O=C1O[C@H]([C@@H](O)CO)C(O)=C1O [ascorbate, reference compound]
effect on HT29 cells (MTT) [2]: no inhibitory effect
effect on CCD18 fibroblasts (MTT) [3]: no inhibitory effect

CCCCCCCCCCCCCCCC(=O)O [palmitate, reference compound]
effect on HT29 cells (MTT) [2]: no inhibitory effect
effect on CCD18 fibroblasts (MTT) [3]: no inhibitory effect
